This assay concerns P388 leukemia ip, CD2F1 mice, survival T/C. Nature of the assay: NCI In Vivo Anticancer Drug Screen. Data for tumor model P388 Leukemia (intraperitoneal) in CD2F1 (CDF1) mice. The note with it: endpoint: median survival time, higher = longer survival. The procedure, abridged:
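Mice carrying the transplanted tumor received test compound or vehicle. Survival was recorded in each group, and the value is the treated-group measurement divided by that of the vehicle-treated control group.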

Where [1] appears, read: dose: 50.0 mg/kg/injection, schedule: Q01DX005 (ip), vehicle: Klucel (hydroxypropylcellulose) (HPC).
Where [2] appears, read: dose: 100.0 mg/kg/injection, schedule: Q01DX005 (ip), vehicle: Klucel (hydroxypropylcellulose) (HPC).
Setting [3] is: dose: 200.0 mg/kg/injection, schedule: Q01DX005 (ip), vehicle: Klucel (hydroxypropylcellulose) (HPC).
[4] abbreviates: dose: 60.0 mg/kg/injection, schedule: Q01DX005 (ip), vehicle: saline with Tween-80.
Where [5] appears, read: dose: 120.0 mg/kg/injection, schedule: Q01DX005 (ip), vehicle: saline with Tween-80.
The mark [6] stands for this setting: dose: 240.0 mg/kg/injection, schedule: Q01DX005 (ip), vehicle: saline with Tween-80.
[7] abbreviates: dose: 60.0 mg/kg/injection, schedule: Q01DX005 (ip), vehicle: Klucel (hydroxypropylcellulose) (HPC).
Setting [8] is: dose: 120.0 mg/kg/injection, schedule: Q01DX005 (ip), vehicle: Klucel (hydroxypropylcellulose) (HPC).
[9] abbreviates: dose: 240.0 mg/kg/injection, schedule: Q01DX005 (ip), vehicle: Klucel (hydroxypropylcellulose) (HPC).
The mark [10] stands for this setting: dose: 50.0 mg/kg/injection, schedule: Q01DX005 (ip), vehicle: saline with Tween-80.
Where [11] appears, read: dose: 100.0 mg/kg/injection, schedule: Q01DX005 (ip), vehicle: saline with Tween-80.
[12] abbreviates: dose: 100.0 mg/kg/injection, schedule: Q01DX009 (ip), vehicle: saline with Tween-80.
The mark [13] stands for this setting: dose: 200.0 mg/kg/injection, schedule: Q01DX009 (ip), vehicle: saline with Tween-80.

“And” between values parts separate entries of the source, which are not always exact repeats. Identical values can stand only once. Toxic doses and inconclusive results are not listed.

In the case of `Nc1nc(N)c2cc(NCc3ccccc3Cl)ccc2n1`, the T/C runs as follows: (dose: 6.25 mg/kg/injection, schedule: Q01DX001 (ip), vehicle: saline with Tween-80) 100 % of control; (dose: 12.5 mg/kg/injection, schedule: Q01DX001 (ip), vehicle: saline with Tween-80) 112 % of control; (dose: 16.5 mg/kg/injection, schedule: Q01DX009 (ip), vehicle: saline with Tween-80) 104 % of control; (dose: 25.0 mg/kg/injection, schedule: Q01DX001 (ip), vehicle: saline with Tween-80) 104 % of control.
`Cn1cc(-n2[nH]c(=O)n(-c3ccccc3)c2=O)c(=O)n(C)c1=O`: the T/C (dose: 50.0 mg/kg/injection, schedule: Q01DX009 (ip), vehicle: Klucel (hydroxypropylcellulose) (HPC)) was 101 % of control; the T/C (dose: 100.0 mg/kg/injection, schedule: Q01DX009 (ip), vehicle: Klucel (hydroxypropylcellulose) (HPC)) was 101 % of control; the T/C (dose: 200.0 mg/kg/injection, schedule: Q01DX009 (ip), vehicle: Klucel (hydroxypropylcellulose) (HPC)) was 96 % of control.
Turning to `CCc1c(C#N)c(N)c2c(N)c(C(=O)c3ccccc3)sc2c1C`, the T/C reads like this: under setting [1], 89 % of control; under setting [2], 101 % of control; under setting [3], 95 % of control.
For the molecule `Nc1ncnc2c1c(-c1ccccc1)cn2-c1ccc(Cl)cc1`, the T/C reads like this: under setting [4], 104 % of control; under setting [5], 99 % of control; under setting [6], 88 % of control.
Regarding `CCCCCCCCN(CCCCCCCC)/N=C/c1c2c(O)c3c(O)c(C)c4c(c3c1O)C(=O)C(C)(O/C=C/C(OC)C(C)C(OC(C)=O)C(C)C(O)C(C)C(O)C(C)/C=C/C=C(C)C(=O)N2)O4` (configuration not stated), the T/C reads like this: under setting [7], 95 % of control; under setting [8], 89 % of control; under setting [9], 92 % of control.
As to `COc1ccc(CNCC#N)c(OC)c1`, the T/C under setting [10] is 97 % of control and the T/C under setting [11] is 100 % of control.
Regarding `OCCCC(=S)NCCNC(=S)CCCO`, the T/C is 101 % of control under setting [7], 92 % of control under setting [8] and 101 % of control under setting [9].
As to `COc1ccc(-c2cc(-c3ccccc3)c(-c3ccccc3)nn2)cc1`, the T/C by setting is: (dose: 50.0 mg/kg/injection, schedule: Q01DX009 (ip), vehicle: saline with Tween-80) 96 % of control; under setting [12], 101 % of control; under setting [13], 96 % of control.
As for `O=C(COc1ccc(Cl)cc1Cl)Nc1ccc(S(=O)(=O)O)cc1`, the T/C by setting is: under setting [7], 104 % of control; under setting [8], 104 % of control; under setting [9], 98 % of control.
For `[B-]([C+]1CCCCC1)N1C=CC=CC1`, the T/C is 100 % of control under setting [1], 98 % of control under setting [2] and 97 % of control under setting [3].
`CCCCCC(CN(C)C)C(=O)/C=C/c1ccc(Br)cc1` (configuration not stated): the T/C by setting is: (dose: 6.25 mg/kg/injection, schedule: Q01DX005 (ip), vehicle: saline) 100 % of control; (dose: 12.5 mg/kg/injection, schedule: Q01DX005 (ip), vehicle: saline) 110 % of control; (dose: 25.0 mg/kg/injection, schedule: Q01DX005 (ip), vehicle: saline) 107 % of control; (dose: 50.0 mg/kg/injection, schedule: Q01DX005 (ip), vehicle: saline) 102 % of control.
Turning to `N#C/C(=C/c1ccccc1)CBr`, the T/C (dose: 100.0 mg/kg/injection, schedule: Q01DX001 (ip), vehicle: saline with Tween-80) was 95 % of control.
For the molecule `COC(=O)c1nc(=S)[nH]c(C(=O)OC)c1C(=O)c1cc(Cl)ccc1Cl`, the T/C reads like this: under setting [4], 96 % of control; under setting [5], 101 % of control; under setting [6], 100 % of control.
On to `CSc1c(C)c(C)nn1-c1ccccc1`, for which the T/C by setting is: under setting [4], 104 % of control; under setting [5], 111 % of control; under setting [6], 104 % of control.
For the molecule `Cc1cc(C)cc(OC(=O)/C=C/C(=O)Oc2cc(C)cc(C)c2)c1`, the T/C runs as follows: under setting [12], 90 % of control; under setting [13], 90 % of control; (dose: 400.0 mg/kg/injection, schedule: Q01DX009 (ip), vehicle: saline with Tween-80) 90 % of control.
Turning to `CC1CC(N=Cc2ccc3c(c2)OCO3)CC(C)(C)C1` (configuration not stated), the T/C under setting [10] is 103 % of control; the T/C under setting [11] is 96 % of control; the T/C (dose: 200.0 mg/kg/injection, schedule: Q01DX005 (ip), vehicle: saline with Tween-80) was 97 % of control.
In the case of `O=C1C(c2ccccc2)=C(c2ccccc2)C(=O)N1CCN1CCCC1`, the T/C by setting is: under setting [4], 105 % of control; under setting [5], 110 % of control; under setting [6], 108 % of control.
As for `CN=C(N)N/N=C(\C)c1ccc(-c2ccccc2)cc1`, the T/C is, setting by setting: (dose: 25.0 mg/kg/injection, schedule: Q04DX002 (ip), vehicle: saline with Tween-80) 105 % of control; (dose: 50.0 mg/kg/injection, schedule: Q04DX002 (ip), vehicle: saline with Tween-80) 106 % of control.
Regarding `O=P(CCCCBr)(NCc1ccccc1)c1ccccc1` (configuration not stated), the T/C reads like this: (dose: 100.0 mg/kg/injection, schedule: Q04DX003 (ip), vehicle: Klucel (hydroxypropylcellulose) (HPC)) 105 % of control; (dose: 200.0 mg/kg/injection, schedule: Q04DX003 (ip), vehicle: Klucel (hydroxypropylcellulose) (HPC)) 117 % of control.
`COc1cc(N=Nc2cccc(C(=O)O)c2)ccc1N(CCCl)CCCl`: the T/C is, setting by setting: (dose: 6.25 mg/kg/injection, schedule: Q01DX009 (ip), vehicle: saline with Tween-80) 106 % of control; (dose: 12.5 mg/kg/injection, schedule: Q01DX009 (ip), vehicle: saline with Tween-80) 121 % of control; (dose: 25.0 mg/kg/injection, schedule: Q01DX009 (ip), vehicle: saline with Tween-80) 152 % of control.
For `CCOC(=O)/C(C(=N)c1nc(C)c(C(=O)OCC)c(C(N)=O)n1)=C(/C)O`, the T/C is 113 % of control under setting [1]; 102 % of control and 90 % of control under setting [2]; 90 % of control and 94 % of control under setting [3].
As for `CCC1(O)C(=O)Nc2ccccc2C1=O` (configuration not stated), the T/C by setting is: under setting [7], 98 % of control; under setting [8], 88 % of control; under setting [9], 98 % of control.
Consider `COC(=O)c1nc(=S)[nH]c(C(=O)OC)c1C(=O)c1ccc(OC)cc1`, for which the T/C is 100 % of control (dose: 60.0 mg/kg/injection, schedule: Q01DX005 (ip), vehicle: saline); 96 % of control (dose: 120.0 mg/kg/injection, schedule: Q01DX005 (ip), vehicle: saline); 103 % of control (dose: 240.0 mg/kg/injection, schedule: Q01DX005 (ip), vehicle: saline).
Regarding `CC(C)c1c(O)c(O)c2c(c1O)C(=O)C(O)=C1C(C)(C)CCC[C@@]12C`, the T/C runs as follows: (dose: 12.5 mg/kg/injection, schedule: Q01DX005 (ip), vehicle: Klucel (hydroxypropylcellulose) (HPC)) 98 % of control; (dose: 25.0 mg/kg/injection, schedule: Q01DX005 (ip), vehicle: Klucel (hydroxypropylcellulose) (HPC)) 94 % of control; under setting [1], 102 % of control; under setting [2], 100 % of control; under setting [3], 109 % of control.
`CC(=O)Oc1cccc(C#N)c1`: the T/C is 100 % of control (dose: 100.0 mg/kg/injection, schedule: Q04DX003 (ip), vehicle: saline with Tween-80); 100 % of control (dose: 200.0 mg/kg/injection, schedule: Q04DX003 (ip), vehicle: saline with Tween-80); 104 % of control (dose: 400.0 mg/kg/injection, schedule: Q04DX003 (ip), vehicle: saline with Tween-80).
With `CC1CCC/C=C/C2CC(O)CC2C(O)/C=C\C(=O)O1` (configuration not stated), the T/C runs as follows: (dose: 8.75 mg/kg/injection, schedule: Q01DX005 (ip), vehicle: Klucel (hydroxypropylcellulose) (HPC)) 101 % of control; (dose: 17.5 mg/kg/injection, schedule: Q01DX005 (ip), vehicle: Klucel (hydroxypropylcellulose) (HPC)) 97 % of control; (dose: 35.0 mg/kg/injection, schedule: Q01DX005 (ip), vehicle: Klucel (hydroxypropylcellulose) (HPC)) 93 % of control; (dose: 70.0 mg/kg/injection, schedule: Q01DX005 (ip), vehicle: Klucel (hydroxypropylcellulose) (HPC)) 100 % of control.
Take `CC(C)C1CC(O)C(C)C(CN2CCCCC2)C1` (configuration not stated): the T/C by setting is: under setting [1], 105 % of control; under setting [2], 104 % of control.
Consider `[O-][N+]12CCCCC1C1CC(C2)C2CCCC(c3ccccc3)N2C1` (configuration not stated), for which the T/C reads like this: (dose: 12.5 mg/kg/injection, schedule: Q01DX009 (ip), vehicle: Klucel (hydroxypropylcellulose) (HPC)) 101 % of control and 105 % of control and 116 % of control; (dose: 25.0 mg/kg/injection, schedule: Q01DX009 (ip), vehicle: Klucel (hydroxypropylcellulose) (HPC)) 103 % of control and 112 % of control and 114 % of control.
